Measurements: patent publication US6946475B1, “Anticancer calcium channel blockers” (University of Virginia Patent Foundation, priority 1999, dated 2005)

Tested on: Ca2+ entry in PC3 cells
Assay: Measurement of intracellular Ca2+ concentration (Ca2+ entry), PC3 cells
Format: cell-based, human
Description: Cells were incubated in growth media containing 1 μM of the acetoxy-methyl ester of the Ca^2+-sensitive fluorescent dye indo-1 (indo-1/AM, Molecular Probes, Eugene, Oreg.) for 1 hour at 37° C. Cells were washed three times in buffer A (10 mM HEPES, pH 7.4, 1 mM MgCl2, 3 mM KCl, 1 mM CaCl2, 140 mM NaCl, 0.1% glucose, 1% fetal bovine serum) and suspended to a final concentration of 10^6/ml. Prior to stimulation, cells were warmed to 37° C. Prior to stimulation, cells were also incubated with drug, calcium channel antagonists and the IC50 values were determined. Changes in [Ca^2+] were monitored in an SLM 8100C spectrofluorometer (SLM/Aminco, Urbana, Ill.) using previously published methods, Haverstick, et al. (1998) Cell Calcium, 23: 361-368; Densmore, et al. (1996) Am. J. Physiol., 271:C1494-1503, incorporated herein by reference.
Calcium influx into the cell is suitably stimulated using either (1) a physiological ligand or (2) an endoplasmic reticulum (ER) ATPase inhibitor. Preferably, a physiological ligand is used to stimulate calcium influx into the cell.
Ir. the experiment depicted in FIG. 4A, TH-1177 was added before the cells were stimulated with ATP. […] By 70 s after ATP addition, release of Ca^2+ from the internal storage pool was largely over (for example, see FIG. 5 below) and the maintenance of elevations of [Ca^2+]i over baseline was dependent on Ca entry from the extracellular compartment. […] Therefore, TH-1177 interacts with the Ca^2+ influx pathway.
The efficiency of TH-1177 at blocking Ca^2+ entry was assessed by comparison to the effect of chelation of extracellular Ca^2+ with EGTA, which was considered 100% inhibition of Ca^2+ entry.
The data presented above provide that TH-1177 inhibited the stimulated increase in [Ca^2+]i by blockage of Ca^2+ entry. […] This increase represented release of Ca^2+ from the internal storage pool. Addition of TH-1177 had no effect on the size of this change in [Ca^2+]i. […]

COc1ccc(CCN2CCC[C@H]2COC(c2ccccc2)c2ccc(Cl)cc2)cc1 (stereo partly drawn) [TH-1177]
IC50 (EGTA chelation of extracellular Ca2+ considered 100% inhibition, read-out: IC50 for blocking Ca2+ entry, PC3 cells): 16 µM
Effect on increase in [Ca2+]i stimulated by ATP (PC3, 1 mM ATP, drug added before): concentration dependent inhibition
Effect on release of Ca2+ from the internal storage pool (PC3, EGTA in medium, 1 mM ATP): no effect
